Patent US8247211B2, “Glycopeptide antibiotics” (American Cyanamid Company, priority 2001, dated 2012)
Values after ≈ are worked out from the molar mass of the structure shown.

Tests used:
Test in all cases: In vitro antibacterial evaluation: minimum inhibitory concentration (MIC), broth dilution method
Format in all cases: cell-based
[1] = test system: Staphylococcus sp.
In short: (§1)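 Broth dilution per NCCLS M7-A2 in Muller-Hinton II […], inoculum 5×10^5 CFU/mL, antibiotic tested over 64-0.06 μg/mL. MIC is taken as the lowest concentration that inhibits growth. Panel includes recent clinical isolates resistant to methicillin, penicillin and/or vancomycin.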

[2] = test system: Enterococcus sp.; settings: 18 hours at 35° C.
In short: as §1

[3] = test system: Streptococcus sp.; settings: 18 hours at 35° C.
In short: as §1

[4] = test system: Escherichia coli; settings: 18 hours at 35° C.
In short: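 MIC read as lowest drug level preventing visible growth. Organisms at 5×10^5 CFU/mL were exposed to a 64-0.06 μg/mL dilution series in Muller-Hinton II […] following NCCLS broth dilution standard M7-A2.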

[5] = broth dilution, inoculum 5×10^5 CFU/mL

- MIC Staphylococcus aureus (ATCC 29213) ([1]; strain ATCC 29213): 4 µg/mL (≈ 2.87 µM)
- MIC Staphylococcus aureus (GC 1131) ([1]; strain GC 1131): 4 µg/mL (≈ 2.87 µM)
- MIC Staphylococcus aureus (GC 3051) ([1]; strain GC 3051): 4 µg/mL (≈ 2.87 µM)
- MIC Staphylococcus aureus (GC 3053) ([1]; strain GC 3053): 8 µg/mL (≈ 5.74 µM)
- MIC Staphylococcus aureus (GC 4541) ([1]; strain GC 4541): 4 µg/mL (≈ 2.87 µM)
- MIC Staphylococcus aureus (GC 4542) ([1]; strain GC 4542): 4 µg/mL (≈ 2.87 µM)
- MIC Staphylococcus aureus-SMITH (GC 4543) ([1]; strain GC 4543): 2 µg/mL (≈ 1.44 µM)
- MIC Staphylococcus aureus (GC 4544) ([1]; strain GC 4544): 8 µg/mL (≈ 5.74 µM)
- MIC Staphylococcus aureus (GC 4545) ([1]; strain GC 4545): 4 µg/mL (≈ 2.87 µM)
- MIC Coagulase Negative Staphylococcus (GC 4547) ([1]; strain GC 4547): 4 µg/mL (≈ 2.87 µM)
- MIC Coagulase Negative Staphylococcus (GC 4548) ([1]; strain GC 4548): 1 µg/mL (≈ 0.718 µM)
- MIC Coagulase Negative Staphylococcus (GC 4549) ([1]; strain GC 4549): 2 µg/mL (≈ 1.44 µM)
- MIC Coagulase Negative Staphylococcus (GC 4551) ([1]; strain GC 4551): 8 µg/mL (≈ 5.74 µM)
- MIC Enterococcus avium (GC 4558) ([2]; Enterococcus avium (GC 4558)): 16 µg/mL (≈ 11.5 µM)
- MIC Enterococcus faecalis (ATCC 29212) ([2]; Enterococcus faecalis (ATCC 29212)): 16 µg/mL (≈ 11.5 µM)
- MIC Enterococcus faecalis (GC 2242) ([2]; Enterococcus faecalis (GC 2242)): 16 µg/mL (≈ 11.5 µM)
- MIC Enterococcus faecalis (GC 2691) ([2]; Enterococcus faecalis (GC 2691)): 16 µg/mL (≈ 11.5 µM)
- MIC Enterococcus faecalis (GC 3059) ([2]; Enterococcus faecalis (GC 3059)): 32 µg/mL (≈ 23 µM)
- MIC Enterococcus faecalis (GC 4552) ([2]; Enterococcus faecalis (GC 4552)): 16 µg/mL (≈ 11.5 µM)
- MIC Enterococcus faecalis (GC 4553) ([2]; Enterococcus faecalis (GC 4553)): 32 µg/mL (≈ 23 µM)
- MIC Enterococcus faecalis (GC 4554) ([2]; Enterococcus faecalis (GC 4554)): 32 µg/mL (≈ 23 µM)
- MIC Enterococcus faecalis (GC 6189) ([2]; Enterococcus faecalis (GC 6189)): 16 µg/mL (≈ 11.5 µM)
- MIC Enterococcus faecium (GC 2243) ([2]; Enterococcus faecium (GC 2243)): 16 µg/mL (≈ 11.5 µM)
- MIC Enterococcus faecium (GC 4556) ([2]; Enterococcus faecium (GC 4556)): 16 µg/mL (≈ 11.5 µM)
- MIC Enterococcus faecium (GC 4557) ([2]; Enterococcus faecium (GC 4557)): 8 µg/mL (≈ 5.74 µM)
- MIC Enterococcus avium (GC 4558) [2, 5]: 16 µg/mL (≈ 11.5 µM)
- MIC Enterococcus faecalis (ATCC 29212) [2, 5]: 16 µg/mL (≈ 11.5 µM)
- MIC Enterococcus faecalis (GC 2242) [2, 5]: 16 µg/mL (≈ 11.5 µM)
- MIC Enterococcus faecalis (GC 2691) [2, 5]: 16 µg/mL (≈ 11.5 µM)
- MIC Enterococcus faecalis (GC 3059) [2, 5]: 32 µg/mL (≈ 23 µM)
- MIC Enterococcus faecalis (GC 4552) [2, 5]: 16 µg/mL (≈ 11.5 µM)
- MIC Enterococcus faecalis (GC 4553) [2, 5]: 32 µg/mL (≈ 23 µM)
- MIC Enterococcus faecalis (GC 4554) [2, 5]: 32 µg/mL (≈ 23 µM)
- MIC Enterococcus faecalis (GC 6189) [2, 5]: 16 µg/mL (≈ 11.5 µM)
- MIC Enterococcus faecium (GC 2243) [2, 5]: 16 µg/mL (≈ 11.5 µM)
- MIC Enterococcus faecium (GC 4556) [2, 5]: 16 µg/mL (≈ 11.5 µM)
- MIC Enterococcus faecium (GC 4557) [2, 5]: 8 µg/mL (≈ 5.74 µM)
- MIC Streptococcus agalactiae (GC 4564) ([3]; Streptococcus agalactiae (GC 4564)): 2 µg/mL (≈ 1.44 µM)
- MIC Streptococcus pneumoniae (ATCC 6301) ([3]; Streptococcus pneumoniae (ATCC 6301)): 1 µg/mL (≈ 0.718 µM)
- MIC Streptococcus pneumoniae (GC 1894) ([3]; Streptococcus pneumoniae (GC 1894)): 0.25 µg/mL (≈ 0.179 µM)
- MIC Streptococcus pneumoniae (GC 4565) ([3]; Streptococcus pneumoniae (GC 4565)): 0.5 µg/mL (≈ 0.359 µM)
- MIC Streptococcus pyogenes (GC 4563) ([3]; Streptococcus pyogenes (GC 4563)): 1 µg/mL (≈ 0.718 µM)
- MIC Streptococcus agalactiae (GC 4564) [3, 5]: 2 µg/mL (≈ 1.44 µM)
- MIC Streptococcus pneumoniae (ATCC 6301) [3, 5]: 1 µg/mL (≈ 0.718 µM)
- MIC Streptococcus pneumoniae (GC 1894) [3, 5]: 0.25 µg/mL (≈ 0.179 µM)
- MIC Streptococcus pneumoniae (GC 4565) [3, 5]: 0.5 µg/mL (≈ 0.359 µM)
- MIC Streptococcus pyogenes (GC 4563) [3, 5]: 1 µg/mL (≈ 0.718 µM)
- MIC Escherichia coli (ATCC 25922) ([4]; Escherichia coli (ATCC 25922)): 64 µg/mL (≈ 45.9 µM)
- MIC Escherichia coli (GC 4559) ([4]; Escherichia coli (GC 4559)): 32 µg/mL (≈ 23 µM)
- MIC Escherichia coli (GC 4560) ([4]; Escherichia coli (GC 4560)): 2 µg/mL (≈ 1.44 µM)
Compound: CC(c1ccccc1)C1NC(=O)CNC(=O)C(CO)NC(=O)C(C(O)C2CNC(=N)N2C2OC(CO)C(O)C(O)C2O)NC(=O)C(C(O)C2CNC(=N)N2)NC(=O)C(Cc2ccc(OC3OC(CO)C(OC4OC5COC6(CCSCC6)OC5C(O)C4O)C(O)C3O)cc2)NC1=O (stereo not drawn) [Example 217, Cyclo[glycyl-β-methylphenylalanyl-O-[4-O-[4,6-O-(tetrahydrothiopyran-4-ylidene)hexopyranosyl]hexopyranosyl]tyrosyl-3-(2-iminoimidazolidin-4-yl)seryl-3-(3-hexopyranosyl-2-iminoimidazolidin-4-yl)serylseryl]]
- MIC Staphylococcus haemolyticus (GC 4546) ([1]; strain GC 4546): 2 µg/mL (≈ 1.44 µM)
